The numbers were not newly measured in patent publication US11590100B2, “Composition for buccal or sublingual administration of cannabis extract and methods for making same” (PANAXIA PHARMACEUTICAL INDUSTRIES LTD., priority 2017, dated 2023), which cites them from elsewhere.

With `CCCCCc1cc(O)c2c(c1)OC(C)(C)[C@@H]1CCC(C)=C[C@@H]21` [THC, Delta-9-tetrahydrocannabinol], the peak effect (after oral administration) was 2 to 4 h. Moreover, where the note is “after single oral doses”, the absorbed is recorded as 90-95%. The “administered dose reaching the systemic circulation” value (oral, first pass hepatic metabolism and poor aqueous solubility) is given as 10-20%.
